Data on one substance can be found in patent US9233127B2, “Compositions and methods for CXCR4 signaling and umbilical cord blood stem cell engraftment” (University of Virginia Patent Foundation, priority 2012, dated 2016).

Assay [1] deals with human BM- and UCB-derived CD34+ cells. The assay can be described thus: Homing of primed human CD34+ cells into BM of lethally irradiated NOD/SCID mice. The class given is in vivo. The text has this:
FIG. 16A-B—Panel A: C3a primes homing of murine CFU-GM and CFU-S into BM of lethally irradiated mice. Murine BM-derived Sca-1^+ cells (10^5/mouse) were transplanted into lethally irradiated syngeneic mice. At 16 hrs after transplant, cells were recovered from the femurs of transplanted animals and assayed in secondary cultures for the number of clonogenic CFU-GM (left panel) and, after transplant into secondarily irradiated animals, for the number of day-12 CFU-S (right panel). Data are pooled from three independent experiments using 10 mice each/tested cells (n=30). * p<0.0001. No HSPC cells were recovered from the marrow cavities of control animals (irradiated, not transplanted) Panel B: C3a primes homing of human CB and BM CD34^+ cells into the BM of lethally irradiated NOD/SCID mice. […] Data are pooled from independent experiments preformed on three different CB- and three different BM samples using 2-4 mice/tested cell sample. p<0.0001.
As final proof of our hypothesis and to test whether the primed cells home better to BM, we primed murine BM-derived Sca-1^+ and human BM- and UCB-derived CD34^+ cells with C3a before their transplantation into lethally irradiated mice. Sixteen hrs after transplantation, recipient mice were sacrificed and cells were recovered from their marrow cavities. […]

In assay [2] the test system is CD34+ cells. Nature of the assay: Transwell chemotaxis of CD34+ cells to an SDF-1 gradient (priming). The class given is cell-based, human. As to the method: FIG. 11A-B—Effect of SLP and its components on chemotaxis of CD34^+ cells. Panel A: Chemotaxis of BM CD34^+ cells towards medium alone (control), SDF-1 low (10 ng/mL) alone, SLP (combined SLP from three patients), SDF-1 low+SLP, and SDF-1 high (300 ng/mL). Data are pooled from quadruplicate samples from three independent experiments. *p<0.00001. Panel B: Chemotaxis of UCB CD34^+ cells to medium alone (control), SDF-1 low (10 ng/mL) alone and SDF-1 low (10 ng/mL)+uPAR (1 μg/mL) or +ICAM (1 μg/mL) or +VCAM (1 μg/mL) or +FN (2 μg/mL), or +FG (4 μg/mL) or +C3a (1 μg/mL). Data are pooled from quadruplicate samples from three independent experiments. * p<0.00001.
Chemotaxis of CD34^+ cells to medium alone (control), C3a (1 μg/ml), C3adesArg (1 μg/ml), SDF-1 low (10 ng/mL) alone, and SDF-1 low (10 ng/mL)+C3a low (0.1 μg/ml) or SDF-1 low (10 ng/mL)+C3a (1 μg/ml) or SDF-1 low (10 ng/mL)+C3adesArg (1 μg/ml). Data are pooled from quadruplicate samples from three independent experiments.* p<0.00001.
FIG. 13A-B—Chemotaxis of cells to an SDF-1 gradient is lipid raft-dependent. Panel A: Chemotaxis of CD34^+ cells to medium alone (control), SDF-1 (300 ng/mL) and SDF-1 (300 ng/mL) after preincubation for 1 hr with Amphotericin (10 μg/mL) or Nystatin (50 μg/mL). Cells were collected after chemotaxis from the lower chambers and plated in a clonogenic assay. The number of CFU-GM and BFU-E colonies formed by harvested cells is shown as a percentage of control values. Data are pooled from quadruplicate samples from three independent experiments. *p<0.0001. Panel B: Chemotaxis of CD34^+ cells towards medium alone (control), SDF-1 low (10 ng/mL) alone, or SDF-1 low with cells exposed to C3a (1 μg/mL). Cells pretreated before chemotaxis for 1 hr with MβCD (2.5 mM) are shown as gray bars. Data are pooled from quadruplicate samples from three independent experiments. * p<0.00001.
HSPCs from the mPB engraft faster compared to HSPCs aspirated from BM. To test the hypothesis that mPB-derived HSPCs are primed in their responses to SDF-1 by molecules present in SLP, we pooled together SLP from three patients and exposed BM or UCB CD34^+ cells to the SLP during chemotaxis to a low (10 ng/mL) dose of SDF-1.
To address this issue further, the formation of rafts in the cells was perturbed by MβCD, which depletes cholesterol from the cell membrane. The CD34^+ cells were pre-incubated with MβCD for 1 hr. Chemotaxis to a low dose of SDF-1 in the presence of C3a (in the upper chambers) was evaluated.

In assay [3] the test system is CXCR4. The assay can be described thus: CXCR4 incorporation into membrane lipid rafts of UCB CD34+ HSC. The settings on record: short-term (15-30 min) exposure to C3a. The class given is cell-based, human. As to the method:
FIG. 14—Priming effect depends on inclusion of CXCR4 into membrane lipid rafts. […] comprises three rows and three columns of images of micrographs. Lipid raft formation on normal human UCB-derived CD34^+ cells not stimulated (control) or stimulated with C3a or desArgC3a. For visualization of lipid rafts, CD34^+ cells were fixed in 3.7% paraformaldehyde/Ca- and Mg-free PBS for 15 min and permeabilized by Triton X-100 in PBS for 5 min at room temperature (RT). The primary antibodies used for raft analysis are cholera toxin B-subunit conjugated with Fluorescein Isothiocyanate (FITC) (Sigma Aldrich, St. Louis, Mo.) and mouse monoclonal anti-hCXCR4 immunoglobulin (Ig)G (R&D Systems, Minneapolis, Minn.). After rinsing in phosphate-buffered saline (PBS), the sections were incubated with Alexa Fluor 568 goat anti-mouse IgG (Molecular Probes, Eugene, Oreg.) for 45 min.

Entries after “also recorded” stand apart in the source; their conditions may differ.

Take “C3a: 77 amino acid residue protein derived from the human complement C3a precursor; SEQ ID NO:1”: the “marrow homing, number of CFU-GM harvested per femur” value in assay [1] (24 h after injection of NOD/SCID mice, C3a primed UCB CD34+ HSC) is reported as “enhanced marrow homing”. The “homing of human CFU-GM into BM” value in assay [1] (CB and BM CD34+ cells preincubated with C3a 30 min, 16 hrs after transplantation) was “home more efficiently; also recorded: homed better; also recorded: primes homing”. In addition, the “chemotaxis of human CD34+ cells to low-threshold doses of SDF-1” value in assay [2] (SDF-1 low 10 ng/mL, C3a or C3adesArg 1 μg/ml) is reported as “potentiate (prime) chemotaxis”. The “chemoattraction of CD34+ cells by the C3 cleavage fragment on its own” value in assay [2] (no SDF-1, 1 μg/ml) is “neither C3 cleavage fragments chemoattract”. Besides, the “CXCR4 incorporation into membrane lipid rafts” value in assay [3] is reported as “enhances CXCR4 incorporation”.
